The text below walks through data of US20240285614A1, “PHENOL RIBONUCLEOTIDE REDUCTASE (RNR) INHIBITORS AND USES THEREOF” (Boundless Bio, Inc., priority 2023, published 2024).

The target in one experiment is T1, RNR (RNR1:RNR2 1:1) (Homo sapiens, UniProt P23921+P31350).
T1 sequence (P23921 1-792): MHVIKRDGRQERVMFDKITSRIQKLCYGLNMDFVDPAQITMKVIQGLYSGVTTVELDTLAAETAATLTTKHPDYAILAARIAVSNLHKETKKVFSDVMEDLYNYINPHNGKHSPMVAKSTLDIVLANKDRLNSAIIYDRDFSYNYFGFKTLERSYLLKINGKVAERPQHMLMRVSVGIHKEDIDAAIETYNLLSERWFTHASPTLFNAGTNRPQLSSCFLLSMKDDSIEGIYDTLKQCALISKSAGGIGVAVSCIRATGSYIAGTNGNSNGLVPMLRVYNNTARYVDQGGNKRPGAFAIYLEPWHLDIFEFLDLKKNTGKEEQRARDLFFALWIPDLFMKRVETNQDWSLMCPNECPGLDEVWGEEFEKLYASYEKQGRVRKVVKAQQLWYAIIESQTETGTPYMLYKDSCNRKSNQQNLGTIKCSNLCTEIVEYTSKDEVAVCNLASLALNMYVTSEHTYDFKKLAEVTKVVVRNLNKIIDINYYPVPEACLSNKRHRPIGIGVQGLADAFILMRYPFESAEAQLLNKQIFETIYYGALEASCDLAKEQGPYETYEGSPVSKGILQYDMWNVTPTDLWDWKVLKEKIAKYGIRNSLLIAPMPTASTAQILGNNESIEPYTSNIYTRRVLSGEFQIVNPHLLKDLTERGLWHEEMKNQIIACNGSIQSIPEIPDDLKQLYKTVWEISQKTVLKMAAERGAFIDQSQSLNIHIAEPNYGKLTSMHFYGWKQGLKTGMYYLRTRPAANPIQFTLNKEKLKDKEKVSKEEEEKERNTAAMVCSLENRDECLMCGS
T1 sequence (P31350 1-389): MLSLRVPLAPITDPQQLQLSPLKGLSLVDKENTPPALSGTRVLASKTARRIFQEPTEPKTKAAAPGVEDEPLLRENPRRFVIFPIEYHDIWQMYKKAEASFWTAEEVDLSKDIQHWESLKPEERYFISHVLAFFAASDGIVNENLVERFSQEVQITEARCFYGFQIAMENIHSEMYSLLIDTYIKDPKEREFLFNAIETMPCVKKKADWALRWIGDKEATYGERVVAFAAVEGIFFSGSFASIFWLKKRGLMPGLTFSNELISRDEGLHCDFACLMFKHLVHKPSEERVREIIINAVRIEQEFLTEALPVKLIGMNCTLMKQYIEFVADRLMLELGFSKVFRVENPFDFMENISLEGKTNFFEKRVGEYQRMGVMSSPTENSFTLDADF
In words: RNR enzyme activity, rapid-fire mass spectrometry (RF/MS) assay. The note with it: RNR 50 nM, 1:1 (RNR1:RNR2); CDP 5 μM; ATP 1 mM; 37° C., 45 min; compounds screened up to 50 μM. The class given is biochemical. The method, then: A rapid-fire mass spectrometry (RF/MS) assay was used to assess RNR enzyme activity using a 384 well plate and a robotic platform.
The plate layout included two validated reference compounds (Triapine (3-AP) and Hydroxyurea (HU)): • A dose response in duplicate, top concentration: 5 μM (3-AP) and 250 μM (HU), semi-log • dilutions. • Spike wells in triplicate randomly spotted at four concentrations: • 250 μM, 100 μM, 30 μM and 2 μM for HU • 5 μM, 2 μM, 0.6 μM and 0.04 μM for 3-AP
First, the multidrop pipes were saturated for 30 minutes with enzymatic solution. Then 30 μL of Stop solution was distributed in column 24. Next, 15 μL of enzyme was distributed in column 1 to 24. Next, a pre-incubation step of 15 minutes at room temperature occurred, followed by distribution of 15 μL of substrate solution (column 1 to 24). Next, the plate was incubated for 45 minutes at 37° C. 30 μL of Stop solution was distributed to columns 1 to 23.
The final parameters for the enzyme reactions were: • Incubation: 37° C., 45 min • [CDP]: 5 μM: [ATP]: 1 mM; [NADPH]: No • [RNR]final: 50 nM with 1:1 (RNR1:RNR2) ratio • Final volume: 30 μL • Stop solution: 6% HCOOH containing 2 μM of 15

The subject of experiment [1] is pCHK1 (S345) in Colo320 DM cells. In words: Alphalisa assay, detection of pCHK1 (S345) in Colo320 DM cells. It counts as cell-based. The note with it: Homo sapiens, COLO 320DM, compound incubation overnight (approximately 16 hours). How it is done: Colo320 DM cells (ATCC #CCL-220, derived from human colorectal adenocarcinoma, Dukes' type C) were seeded on a 96-well, cell culture treated assay plate at a density of 50,000 cells/well in 200 μL of RPMI-1640 media supplemented with 10% Fetal Bovine Serum and incubated at 37° C. overnight. The following day, test compound dilutions were added directly to the plated cells by a Tecan digital dispenser to a final DMSO concentration of <0.5%, and incubated at 37° C. overnight (approximately 16 hours). The following day all cull culture media was removed from the cells. 75 μL of 1× AlphaLisa lysis buffer was added to each well and plates were agitated on a shaker for 30 minutes at room temperature. The lysis of cells and detection of pCHK1 (S345) were performed with regents contained within the AlphaLisa Sure Fire assay kit (Perkin Elmer #ALSU-PCHK1-A) according to the manufacturer's instructions. 10 μL of each lysate was then transferred to a white, 384-well assay plate (Perkin Elmer #6008280), 5 μL of Acceptor mix was then added to each well of lysate in the white, 384-well assay plate and incubated in the dark at room temperature for 60 minutes. 5 μL of Donor mix was then added to each well of the white, 384-well assay plate in subdued light and incubated at room temperature for 60 minutes. Plates were read on an Alpha Technology-compatible plate reader using standard AlphaLisa settings.

As for `CN(c1ccc(O)cc1)C1CCN(S(=O)(=O)c2ccc3cc[nH]c3c2)C1` (racemic) [compound 20, rac-(R)-4-((1-((1H-indol-6-yl)sulfonyl)pyrrolidin-3-yl)(methyl)amino)phenol], the IC50 (commonly the midpoint of a concentration-inhibition curve) was no more than 50 nM against RNR (RNR1:RNR2 1:1) and no more than 1 µM in experiment [1]. As to `CN(c1ccc(O)cc1)C1CCN(S(=O)(=O)c2ccc3[nH]ccc3c2)C1` (racemic) [compound 30, rac-(R)-4-((1-((1H-indol-5-yl)sulfonyl)pyrrolidin-3-yl)(methyl)amino)phenol], the IC50 on RNR (RNR1:RNR2 1:1) was no more than 50 nM; in experiment [1], no more than 1 µM. For `CN(c1ccc(O)cc1)C1CCN(S(=O)(=O)c2cccc3[nH]ccc23)C1` (racemic) [compound 31, rac-(R)-4-((1-((1H-indol-4-yl)sulfonyl)pyrrolidin-3-yl)(methyl)amino)phenol] the same measures were no more than 50 nM and 1 to 5 µM. For the molecule `CN(c1ccc(O)cc1)C1CCN(S(=O)(=O)c2cc3[nH]c(Cl)cc3cc2F)C1` (racemic) [compound 32, rac-(R)-4-((1-((2-chloro-5-fluoro-1H-indol-6-yl)sulfonyl)pyrrolidin-3-yl)(methyl)amino)phenol], the IC50 in experiment [1] is 1 to 5 µM. As to `C[C@@H]1[C@H](Nc2ccc(O)cc2)CN1S(=O)(=O)c1ccc2cc[nH]c2c1` (racemic) [compound 36, rac-4-(((2R,3R)-1-((1H-indol-6-yl)sulfonyl)-2-methylazetidin-3-yl)amino)phenol], the figures for the IC50 (against RNR (RNR1:RNR2 1:1); in experiment [1]) were 100 to 500 nM and 1 to 5 µM, respectively. For `C[C@@H]1C[C@H](N(C)c2ccc(O)cc2)CN1S(=O)(=O)c1ccc2cc[nH]c2c1` (racemic) [compound 37, rac-4-(((3R,5S)-1-((1H-indol-6-yl)sulfonyl)-5-methylpyrrolidin-3-yl)(methyl)amino)phenol] the same measures were no more than 50 nM and 1 to 5 µM. As for `CN(c1ccc(O)cc1)C1CN(S(=O)(=O)c2ccc3cc[nH]c3c2)C2(CC2)C1` (racemic) [compound 38, rac-(R)-4-((4-((1H-indol-6-yl)sulfonyl)-4-azaspiro[2.4]heptan-6-yl)(methyl)amino)phenol], the results for the IC50 (against RNR (RNR1:RNR2 1:1); in experiment [1]) were no more than 50 nM and 1 to 5 µM, respectively. The like results for `C[C@@H]1CN(S(=O)(=O)c2ccc3cc[nH]c3c2)C[C@H]1N(C)c1ccc(O)cc1` (racemic) [compound 39, rac-4-(((3R,4S)-1-((1H-indol-6-yl)sulfonyl)-4-methylpyrrolidin-3-yl)(methyl)amino)phenol] were, in that order, no more than 50 nM and 1 to 5 µM. `C[C@H]1C[C@H](N(C)c2ccc(O)cc2)CN1S(=O)(=O)c1ccc2cc[nH]c2c1` (racemic) [compound 48, rac-4-(((3R,5R)-1-((1H-indol-6-yl)sulfonyl)-5-methylpyrrolidin-3-yl)(methyl)amino)phenol] returned an IC50 in experiment [1] of 1 to 5 µM. Regarding `Cn1ccc2cccc(S(=O)(=O)N3CCN(c4ccc(O)cc4)CC3)c21` [compound 1, 4-(4-((1-methyl-1H-indol-7-yl)sulfonyl)piperazin-1-yl)phenol], the figures for the IC50 (on RNR (RNR1:RNR2 1:1); in experiment [1]) were no more than 50 nM and 5 to 10 µM, respectively. For `O=S(=O)(c1ccc2cc[nH]c2c1)N1CCN(c2ccc(O)cc2)CC1` [compound 2, 4-(4-((1H-indol-6-yl)sulfonyl)piperazin-1-yl)phenol] the same measures were 50 to 100 nM and 1 to 5 µM. On to `Cn1ccc2ccc(S(=O)(=O)N3CCN(c4ccc(O)cc4)CC3)cc21` [compound 3, 4-(4-((1-methyl-1H-indol-6-yl)sulfonyl)piperazin-1-yl)phenol], for which the results for the IC50 (against RNR (RNR1:RNR2 1:1); in experiment [1]) were 100 to 500 nM and 5 to 10 µM, respectively. For the molecule `Cn1ccc2cc(S(=O)(=O)N3CCN(c4ccc(O)cc4)CC3)ccc21` [compound 4, 4-(4-((1-methyl-1H-indol-5-yl)sulfonyl)piperazin-1-yl)phenol], the IC50 against RNR (RNR1:RNR2 1:1) lay within 100 to 500 nM; in experiment [1], 5 to 10 µM. Regarding `O=S(=O)(c1cccc2cc[nH]c12)N1CCN(c2ccc(O)cc2)CC1` [compound 5, 4-(4-((1H-indol-7-yl)sulfonyl)piperazin-1-yl)phenol], the concentration for half-maximal inhibition (IC50) against RNR (RNR1:RNR2 1:1) was in the range of 100 to 500 nM; in experiment [1], 1 to 5 µM.

Turning to `Cn1ccc2cc(S(=O)(=O)N3CCN(c4ccc(O)cc4)CC3)cnc21` [compound 6, 4-(4-((1-methyl-1H-pyrrolo[2,3-b]pyridin-5-yl)sulfonyl)piperazin-1-yl)phenol], the IC50 at RNR (RNR1:RNR2 1:1) fell in the range of 100 to 500 nM; in experiment [1], 10 to 50 µM.

Take `O=S(=O)(c1cccc2[nH]ccc12)N1CCN(c2ccc(O)cc2)CC1` [compound 7, 4-(4-((1H-indol-4-yl)sulfonyl)piperazin-1-yl)phenol]: the IC50 against RNR (RNR1:RNR2 1:1) was 50 to 100 nM; in experiment [1], 1 to 5 µM. In the case of `O=S(=O)(c1ccc2cc[nH]c2c1)N1CC=C(c2ccc(O)cc2)CC1` [compound 8, 4-[1-(1H-indol-6-ylsulfonyl)-3,6-dihydro-2H-pyridin-4-yl]phenol], the IC50 in experiment [1] is 1 to 5 µM.

As to `O=S(=O)(c1ccc2[nH]ccc2c1)N1CCN(c2ccc(O)cc2)CC1` [compound 9, 4-(4-((1H-indol-5-yl)sulfonyl)piperazin-1-yl)phenol], the figures for the concentration for half-maximal inhibition (IC50) (at RNR (RNR1:RNR2 1:1); in experiment [1]) were 100 to 500 nM and 5 to 10 µM, respectively. As for `O=S(=O)(NC1CN(c2ccc(O)cc2)C1)c1ccc2cc[nH]c2c1` [compound 10, N-(1-(4-hydroxyphenyl)azetidin-3-yl)-1H-indole-6-sulfonamide], the half-maximal inhibitory concentration (IC50) lay within 50 to 100 nM against RNR (RNR1:RNR2 1:1) and 1 to 5 µM in experiment [1]. The like results for `O=S(=O)(c1ccc2cc[nH]c2c1)N1CC(Nc2ccc(O)cc2)C1` [compound 11, 4-((1-((1H-indol-6-yl)sulfonyl)azetidin-3-yl)amino)phenol] were, in that order, no more than 50 nM and 1 to 5 µM. `O=S(=O)(c1ccc2cc[nH]c2c1)N1CCN(c2ccc(O)cc2)CC12CC2` [compound 33, 4-(4-((1H-indol-6-yl)sulfonyl)-4,7-diazaspiro[2.5]octan-7-yl)phenol] had an IC50 in experiment [1] of 1 to 5 µM. On to `O=C1C[C@@H]2CN(S(=O)(=O)c3ccc4cc[nH]c4c3)C[C@H](C1)N2c1ccc(O)cc1` [compound 42, (1R,5S)-3-((1H-indol-6-yl)sulfonyl)-9-(4-hydroxyphenyl)-3,9-diazabicyclo[3.3.1]nonan-7-one], for which the IC50 in experiment [1] was in the range of 1 to 5 µM. `O=S(=O)(c1ccc2cc[nH]c2c1)N1CCC2C1CCCN2c1ccc(O)cc1` (stereo not shown) [compound 49, 4-(1-((1H-indol-6-yl)sulfonyl)octahydro-4H-pyrrolo[3,2-b]pyridin-4-yl)phenol] yielded a half-maximal inhibitory concentration (IC50) in experiment [1] of 1 to 5 µM.
